The results in this text go back to patent publication US20240166641A1, “HETEROCYCLES AND USES THEREOF” (Kumquat Biosciences Inc., priority 2021, published 2024).

In assay [1] the target is T1, PTP1B (Homo sapiens, UniProt P18031).
T1 sequence (P18031 1-435): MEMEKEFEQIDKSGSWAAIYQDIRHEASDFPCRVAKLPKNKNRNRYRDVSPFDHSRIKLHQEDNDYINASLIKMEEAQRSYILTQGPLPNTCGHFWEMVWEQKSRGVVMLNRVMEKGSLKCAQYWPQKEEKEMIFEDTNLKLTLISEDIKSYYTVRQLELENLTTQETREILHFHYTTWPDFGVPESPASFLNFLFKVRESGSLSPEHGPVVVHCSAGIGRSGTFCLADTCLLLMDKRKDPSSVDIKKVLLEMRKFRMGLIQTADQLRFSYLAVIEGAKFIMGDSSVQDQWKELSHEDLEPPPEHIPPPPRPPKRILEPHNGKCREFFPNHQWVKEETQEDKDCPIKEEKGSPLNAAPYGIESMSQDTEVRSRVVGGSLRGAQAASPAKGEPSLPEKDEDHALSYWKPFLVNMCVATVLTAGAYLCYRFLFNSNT
The experiment in a line: Phosphatase activity assay (Bio-Biochem-DiFMUP), PTP1B. It is filed as biochemical. The following applies: DiFMUP substrate, room temperature. From the text:
(§1) The selectivity and potency of a small molecule PTPN2 inhibitor as provided herein (e.g., a derivative of Formula I, II, III, IV; or sub-formulae thereof) against one or more protein tyrosine phosphatase (PTP) enzymes, and specifically against PTPN2, can be assessed in various ways. The one or more PTP enzymes comprise Mycobacterium protein tyrosine phosphatase A (mPTPA), Mycobacterium protein tyrosine phosphatase B (mPTPB), PTPN1 (i.e., PTP1B), PTPN2 (i.e., TC-PTP), SHP-1, SHP-2, FAP-1, Meg2, HePTP, Laforin, VHX, VHR, LMWPTP, Cdcl4A, LAR, CD45, PTPRG, a fragment thereof, a variant thereof, and a combination thereof. Selectivity and potency of a small molecule PTPN2 inhibitor is evaluated using a PTP activity inhibition assay. The assay is performed using a buffer comprising 50 millimolar (mM) Bis-Tris (pH=6.3), 2 mM EDTA, and 5 mM N,N′-dimethyl-N,N′-bis(mercaptoacetyl)hydrazine (DMH). The assay is performed using a phosphated substrate, e.g., 10 mM fluorescein diphosphate (FDP) that is stored at −20° C. Alternatively or in addition to, the assay is performed using 10 mM DiFMUP as a phosphated substrate. Each PTP enzyme is diluted in an enzyme dilution buffer comprising 50 mM Bis-Tris (pH=6.3), 2 mM EDTA, 5 mM DMH, 20% (vol./vol.) glycerol, and 0.01% (vol./vol.) Triton X-100.
(§2) The assay is carried out at room temperature in 96 well plates. A reaction mixture of 170 microliter (μL) of the assay buffer comprising 10 μM FDP or DiFMIUP is added to each well. A 10 μL volume of (i) a compound disclosed herein (e.g., PTPN2 inhibitor) dissolved in DMSO at one of 10 concentrations from a serial dilution or (ii) DMSO alone for control is added to each well. The reaction is initiated by adding 20 μL of a PTP enzyme (e.g., PTPN2) that is diluted in the enzyme dilution buffer. The phosphatase activity of the PTP enzyme is assessed by monitoring appearance of a fluorescent product (e.g., fluorescein monophosphate (FMP) from FDP, or 6,8-difluoro-7-hydroxyl-4-coumarin (DiFMU) from DiFMUP) continuously for about 15 to 30 minutes, using the SpectraMax® Gemini™ XPS Microplate Spectrofluorometer (Molecular Devices®) with excitation of 440 nm and emission at 530 nm (cutoff filter at 525 nm) for FMP and excitation at 360 nm and emission at 450 nm (cutoff filter at 435 nm) for DiFMU. The rate (e.g., the initial rate) of FMP or DiFMU formation is plotted against the concentration of the small molecule PTPN2 inhibitor, and the data is fitted (e.g., using a 4-parameter equation) to determine the inflection point of the fit as the IC50 of the small molecule PTPN2 inhibitor for a specific enzyme. Table 6 summarizes the IC50 values of compounds disclosed herein against PTPN2 and PTPN1.

For assay [2], the target named is T2, PTPN2 (Homo sapiens, UniProt P17706).
T2 sequence (P17706 1-415): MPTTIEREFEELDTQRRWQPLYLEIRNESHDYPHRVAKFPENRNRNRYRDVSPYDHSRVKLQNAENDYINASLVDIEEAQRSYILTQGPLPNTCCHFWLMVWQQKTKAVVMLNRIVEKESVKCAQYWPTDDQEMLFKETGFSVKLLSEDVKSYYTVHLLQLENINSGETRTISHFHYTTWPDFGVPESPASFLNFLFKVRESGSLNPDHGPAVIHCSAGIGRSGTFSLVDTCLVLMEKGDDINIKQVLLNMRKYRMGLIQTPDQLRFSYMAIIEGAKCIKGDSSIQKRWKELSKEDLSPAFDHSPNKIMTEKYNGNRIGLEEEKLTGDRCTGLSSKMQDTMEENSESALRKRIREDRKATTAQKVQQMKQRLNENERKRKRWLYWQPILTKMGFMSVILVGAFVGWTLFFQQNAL
Nature of the assay: Phosphatase activity assay (Bio-Biochem-DiFMUP), PTPN2. It is filed as biochemical. The following applies: DiFMUP substrate, room temperature.
Description: as §1, §2

As a reminder, the IC50 is the point on the concentration scale where inhibition reaches its midpoint. Turning to `CC(C)CCNc1cc2cc(N3CC(=O)NS3(=O)=O)c(O)cc2n(C2CC2)c1=O` [Compound 145], the IC50 in assay [1] and in assay [2] was at most 1000 nM throughout.

With `COc1cc2c(F)c(N3CC(=O)NS3(=O)=O)c(O)cc2n(C)c1=O` [Compound 146], the IC50 in assay [1] and in assay [2] was at most 1000 nM throughout.

For the compound `O=C1CN(c2cc3nc(C4CCOC4)ccc3cc2O)S(=O)(=O)N1` (stereo not drawn) [Compound 147], the half-inhibitory concentration (IC50) in assay [1] is at most 1000 nM; in assay [2] it was 1000 to 10000 nM.

Take `Cn1c(=O)c(NCCCC#N)cc2cc(N3CC(=O)NS3(=O)=O)c(O)cc21` [Compound 148]: the IC50 in assay [1] and in assay [2] was at most 1000 nM throughout.

On to `CC(C)CCCc1cc2cc(N3CC(=O)NS3(=O)=O)c(O)cc2n(C)c1=O` [Compound 152], for which the half-maximal inhibitory concentration (IC50) in assay [1] and in assay [2] was at most 1000 nM in each case.

Consider `CC(C)Oc1cc2c(F)c(N3CC(=O)NS3(=O)=O)c(O)cc2n(C)c1=O` [Compound 156], for which the IC50 in assay [1] and in assay [2] was at most 1000 nM each time.

As to `CC(C)CCn1ccc2cc(O)c(N3CC(=O)NS3(=O)=O)c(F)c2c1=O` [Compound 157], the IC50 in assay [1] and in assay [2] was 1000 to 10000 nM throughout.

Turning to `N#Cc1cccc(CCOc2ccc3cc(O)c(N4CC(=O)NS4(=O)=O)cc3n2)c1` [Compound 159], the half-maximal inhibitory concentration (IC50) in assay [1] and in assay [2] was at most 1000 nM throughout.

Consider `CC(C)CCOc1cc2cc(N3CC(=O)NS3(=O)=O)c(O)cc2n(C)c1=O` [Compound 160], for which the IC50 in assay [1] and in assay [2] was at most 1000 nM in each case.

`Cn1c(=O)c(C#N)cc2cc(N3CC(=O)NS3(=O)=O)c(O)cc21` [Compound 161]: the IC50 in assay [1] and in assay [2] was over 10000 nM throughout.

`C[C@@H](Nc1cc2cc(N3CC(=O)NS3(=O)=O)c(O)cc2n(C)c1=O)c1ccccc1` [Compound 162]: the IC50 in assay [1] and in assay [2] was at most 1000 nM in each case.

In the case of `O=C1CN(c2cc3nc(OCCN4CCC4)ccc3cc2O)S(=O)(=O)N1` [Compound 163], the IC50 in assay [1] and in assay [2] was over 10000 nM in each case.

Consider `Cn1c(=O)c(NCCC#N)cc2cc(N3CC(=O)NS3(=O)=O)c(O)cc21` [Compound 164], for which the IC50 in assay [1] and in assay [2] was at most 1000 nM in each case.

As to `CCN1CCC(Nc2cc3cc(N4CC(=O)NS4(=O)=O)c(O)cc3n(C)c2=O)CC1` [Compound 166], the IC50 in assay [1] and in assay [2] was 1000 to 10000 nM in each case.

As to `O=C1CN(c2cc3nc(OCCc4ccccc4)ccc3cc2O)S(=O)(=O)N1` [Compound 167], the IC50 in assay [1] and in assay [2] was at most 1000 nM in each case.

With `Cn1c(=O)c(NCCC2CC2)cc2cc(N3CC(=O)NS3(=O)=O)c(O)cc21` [Compound 168], the IC50 in assay [1] was at most 1000 nM; in assay [2], 1000 to 10000 nM.

Consider `Cn1c(=O)c(N2CCCCC2)cc2cc(N3CC(=O)NS3(=O)=O)c(O)cc21` [Compound 169], for which the IC50 in assay [1] and in assay [2] was 1000 to 10000 nM throughout.

Take `O=C1CN(c2cc3cc(C(=O)NCCc4ccccc4)sc3cc2O)S(=O)(=O)N1` [Compound 170]: the concentration for half-maximal inhibition (IC50) in assay [1] and in assay [2] was at most 1000 nM each time.

Turning to `CCN1CCC(CNc2cc3cc(N4CC(=O)NS4(=O)=O)c(O)cc3n(C)c2=O)CC1` [Compound 171], the 50% inhibitory concentration (IC50) in assay [1] and in assay [2] was at most 1000 nM throughout.

For the compound `CN(C)C1CN(c2cc3cc(N4CC(=O)NS4(=O)=O)c(O)cc3n(C)c2=O)C1` [Compound 172], the IC50 in assay [1] and in assay [2] was 1000 to 10000 nM throughout.

`Cn1c(=O)c(NCC(C)(F)F)cc2cc(N3CC(=O)NS3(=O)=O)c(O)cc21` [Compound 173]: the IC50 in assay [1] and in assay [2] was at most 1000 nM throughout.

As for `CCN1CC(Nc2cc3cc(N4CC(=O)NS4(=O)=O)c(O)cc3n(C)c2=O)C1` [Compound 174], the IC50 in assay [1] was at most 1000 nM; in assay [2] it was 1000 to 10000 nM.

Regarding `N#CCCCOc1ccc2cc(O)c(N3CC(=O)NS3(=O)=O)cc2n1` [Compound 175], the IC50 in assay [1] and in assay [2] was at most 1000 nM each time.

As for `Cn1c(=O)c(NCc2ccccc2)cc2cc(N3CC(=O)NS3(=O)=O)c(O)cc21` [Compound 177], the IC50 in assay [1] and in assay [2] was at most 1000 nM throughout.

`Cn1c(=O)c(NCCC2CCCC2)cc2c(F)c(N3CC(=O)NS3(=O)=O)c(O)cc21` [Compound 179]: the IC50 in assay [1] and in assay [2] was at most 1000 nM in each case.

Take `Cn1c(=O)c(NCc2ccccc2)cc2c(F)c(N3CC(=O)NS3(=O)=O)c(O)cc21` [Compound 180]: the half-inhibitory concentration (IC50) in assay [1] and in assay [2] was at most 1000 nM throughout.

Take `CC(C)CC#Cc1cc2cc(N3CC(=O)NS3(=O)=O)c(O)cc2n(C)c1=O` [Compound 181]: the IC50 in assay [1] and in assay [2] was at most 1000 nM in each case.

As for `CC(C)CCOc1ccc2cc(O)c(N3CC(=O)NS3(=O)=O)cc2n1` [Compound 182], the IC50 in assay [1] and in assay [2] was at most 1000 nM each time.

`Cn1c(=O)c(O)cc2c(F)c(N3CC(=O)NS3(=O)=O)c(O)cc21` [Compound 184]: the IC50 in assay [1] is at most 1000 nM; in assay [2], 1000 to 10000 nM.

`CC(C)CCNc1ccc2cc(O)c(N3CC(=O)NS3(=O)=O)cc2n1` [Compound 187]: the IC50 in assay [1] and in assay [2] was over 10000 nM each time.

With `O=C1CN(c2cc3nc(-c4cnn(CC5CC5)c4)ccc3cc2O)S(=O)(=O)N1` [Compound 188], the IC50 in assay [1] and in assay [2] was at most 1000 nM each time.

As to `O=C1CN(c2cc3nc(OCCc4ccc(F)cc4)ccc3cc2O)S(=O)(=O)N1` [Compound 189], the IC50 in assay [1] and in assay [2] was at most 1000 nM each time.

Turning to `Cn1c(=O)c(NC2CCN(S(C)(=O)=O)C2)cc2cc(N3CC(=O)NS3(=O)=O)c(O)cc21` (stereo not drawn) [Compound 191], the IC50 in assay [1] and in assay [2] was at most 1000 nM throughout.

As to `Cn1c(=O)c(NCCCCC#N)cc2cc(N3CC(=O)NS3(=O)=O)c(O)cc21` [Compound 193], the concentration for half-maximal inhibition (IC50) in assay [1] and in assay [2] was at most 1000 nM in each case.

Turning to `C[C@H](Nc1cc2cc(N3CC(=O)NS3(=O)=O)c(O)cc2n(C)c1=O)c1ccccc1` [Compound 194], the IC50 in assay [1] was at most 1000 nM; in assay [2], 1000 to 10000 nM.

`CC(C)OCCNc1cc2cc(N3CC(=O)NS3(=O)=O)c(O)cc2n(C)c1=O` [Compound 195]: the IC50 in assay [1] and in assay [2] was at most 1000 nM throughout.

As for `CC(C)CCn1cnc2cc(O)c(N3CC(=O)NS3(=O)=O)cc2c1=O` [Compound 196], the IC50 in assay [1] and in assay [2] was over 10000 nM in each case.

On to `O=C1CN(c2c(O)cc3sc(C(=O)NCCc4ccccc4)cc3c2F)S(=O)(=O)N1` [Compound 198], for which the concentration for half-maximal inhibition (IC50) in assay [1] and in assay [2] was at most 1000 nM throughout.

Regarding `CC(C)CCn1ccc2cc(O)c(N3CC(=O)NS3(=O)=O)cc2c1=O` [Compound 199], the IC50 in assay [1] and in assay [2] was over 10000 nM throughout.
